Experimental data published in US20230321122A1, “ACTIVE AGENT MODULATING THE ACTIVITY OF AN ION CHANNEL FOR USE IN HAIR GROWTH REGULATION” (CUTANEON - Skin & Hair Innovations GmbH, priority 2020, published 2023).

Columns and labels:
human hair follicles [1] = assay: Human hair follicle organ culture, hair cycle staging; format: cell-based; details: for hair cycle stage of hair follicles (anagen) vs vehicle: 12.5 (unit not given), day 3 and day 6, FIGS. 8, 9
Description: Human anagen hair follicles were isolated from the skin of males undergoing hair transplantation with written informed consent. Microdissected hair follicles were amputated at the level of dermal-subcutaneous junction and equilibrated in Williams' E medium (WEM) (Life Technologies) supplemented with 2 mM L-glutamine (Life Technologies), 10 ng/ml hydrocortisone, 10 μg/ml insulin, and antibiotics (all from Sigma-Aldrich). After 24 hours, growing undamaged anagen hair follicles were selected for treatment with DMP Human hair follicles were cultured in presence of DMP (12.5 The culture medium was changed every two days with addition of DMP. Hair follicles were photographed and percentage of hair follicles at different stages of hair cycle were calculated at day 3 and day 6 of the treatment and compared to vehicle.
Human anagen hair follicles were isolated from the skin of males undergoing hair transplantation with written informed consent. […] After 24 hours, growing undamaged anagen hair follicles were selected for treatment with 2-Hep (12.5 The culture medium was changed every two days with addition of 2-Hep. Hair follicles were photographed and percentage of hair follicles at different stages of hair cycle were calculated at day 3 and day 6 of the treatment and compared to vehicle.
Human anagen hair follicles were isolated from the skin of males undergoing hair transplantation with written informed consent. […] After 24 hours, growing undamaged anagen hair follicles were selected for treatment with human hair follicles were cultured in presence of TPPO (150 The culture medium was changed every two days with addition of TPPO. Hair follicles were photographed and percentage of hair follicles at different stages of hair cycle were calculated at day 3 and day 6 of the treatment and compared to vehicle.

human hair follicles [2] = assay: Quantitative PCR gene expression in compound-treated human hair follicles; format: cell-based; details: 6 hours, vs vehicle
Description: Total RNA was isolated using PICOPURE® RNA Isolation Kit (Applied BioSystems) according to the manufacturer's protocol. After isolation, 100 ng of total RNA was reverse-transcribed into cDNA using a TETRO® cDNA synthesis kit (Bioline). Quantitative-PCR was performed using the StepOne Plus real time PCR system (Applied Biosystems) using TAQMAN® fast advanced master mix and TAQMAN® probes for LEF1, IGF1, TGFB2 AND SFRP1 (Applied Biosystems). The amount of the aforementioned transcripts was normalized to the expression of reference gene (GAPDH) using the ΔΔCt method. Results were performed in triplicate for each experiment.
For gene expression analysis, human hair follicles were microdissected as above and treated with 2-Hep (12.5 uM) for 6 hours. Following the treatment, total RNA was isolated and processed for cDNA synthesis as above. Quantitate PCR was performed using TAQMAN® assay with probes for TGFB2 and AXIN2 (Applied Biosystems).
For gene expression analysis, human hair follicles were microdissected as above and treated with TPPO (150 uM) for 6 hours. Following the treatment, total RNA was isolated and processed for cDNA synthesis as above. Quantitate PCR was performed using TAQMAN® assay with probes for IGF1, FGF7 and TGFB2 (Applied Biosystems).

Structure (SMILES)	hair cycle stage of hair follicles (anagen) vs vehicle (human hair follicles [1])	expression of AXIN2 (human hair follicles [2]; 12.5 uM, FIG. 10)	expression of TGFB2 (human hair follicles [2]; 12.5 uM, FIG. 10)	hair cycle stage of hair follicles (catagen) vs vehicle (human hair follicles [1]; 150 (unit not given), day 3 and day 6, FIG. 11)	TGFB2 transcript (human hair follicles [2]; 150 uM, FIG. 12)	expression level of FGF7 (human hair follicles [2]; 150 uM, FIG. 12)	expression level of IGF1 (human hair follicles [2]; 150 uM, FIG. 12)
CCCCCC(C)=O [2-Hep, 2-heptanone]	prolongs anagen	up-regulated	down-regulated				
Cc1cnc(C)cn1 [DMP, 2,5-dimethylpyrazine]	prolongs anagen						
O=P(c1ccccc1)(c1ccccc1)c1ccccc1 [TPPO, triphenylphosphine oxide]				promotes catagen	up-regulated	significantly down-regulated	significantly down-regulated
